Measurements from patent US20020115623A1, “Saponin derivatives useful for inhibiting sialyltransferase and biosynthesis of sialoglycoconjugate” (Shui-Tein Chen, priority 2000, published 2002).

How the values were obtained:
α2,3-sialyltransferase = molecular target: T1, α2,3-sialyltransferase (Mus musculus, UniProt P54751); assay: Assay of α2,3-sialyltransferase activity; assay type: biochemical; details: for Percentage of inhibition (%): concentration of inhibitor in assay 30 μM
T1 construct: made in house
T1 sequence (P54751 1-337): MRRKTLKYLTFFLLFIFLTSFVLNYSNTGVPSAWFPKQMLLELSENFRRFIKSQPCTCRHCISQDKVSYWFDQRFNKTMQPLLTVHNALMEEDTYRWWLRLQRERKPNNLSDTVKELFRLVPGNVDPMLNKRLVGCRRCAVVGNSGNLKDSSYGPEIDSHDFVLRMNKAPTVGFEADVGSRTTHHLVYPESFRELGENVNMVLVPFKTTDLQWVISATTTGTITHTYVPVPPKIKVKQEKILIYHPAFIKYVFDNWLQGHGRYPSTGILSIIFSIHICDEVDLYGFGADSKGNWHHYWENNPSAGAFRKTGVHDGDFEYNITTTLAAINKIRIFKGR
Method: (§1) α2,3-Sialyltransferases were prepared by the procedures as described by Tsuji et al, Eur J Biochem., 1993, 216(2), 377-85. The suspension of enzyme-bound beads in 250 mM sodium cacodylate buffer (pH 6.4), 25 mM MgCl2, 5 mM CaCl2 was mixed with a Vortex mixer. Then, 4 μl of the enzyme suspension (1×10^−6 Units) was pipetted using a Gilson P-20 pipetter immediately after mixing. The enzyme was then premixed with 4 μl of inhibitors (75 μM) or water (as control) at 25° C. for 5 min. Then, the substrates, 1 μl of CMP-[14C]NeuAc (40 nCi/μl) and 1 μl of Galα1,3GalNAc-Obzl (0.1 mM), were added to the pre-incubated enzyme-inhibitor mixture and incubated at 37° C. for 3 h. The final concentrations of sodium cacodylate, MgCl2, CaCl2, and Galα1,3GalNAc-OBzl in the reaction mixture were 100 mM, 10 mM, 2 mM, and […], respectively. The solution was placed in the ice to stop the reaction. The resulting reaction products were immediately analyzed by silica gel 60 HPTLC plate (Merck, Germany) with a solvent system of ethanol/pyridine/n-butanol/acetate/water (100:10:10:3:30). The radioactivity of the corresponding product and total radioactivity were detected and quantified with a BAS 1500 radio-image analyzer (Fuji Film, Japan).

α2,6-sialyltransferase = molecular target: T2, α2,6-sialyltransferase (Gallus gallus, UniProt Q92183); assay: Assay of α2,6-sialyltransferase activity; assay type: biochemical; details: concentration of inhibitor in assay 20 μM
T2 construct: made in house
T2 sequence (Q92183 whole entry): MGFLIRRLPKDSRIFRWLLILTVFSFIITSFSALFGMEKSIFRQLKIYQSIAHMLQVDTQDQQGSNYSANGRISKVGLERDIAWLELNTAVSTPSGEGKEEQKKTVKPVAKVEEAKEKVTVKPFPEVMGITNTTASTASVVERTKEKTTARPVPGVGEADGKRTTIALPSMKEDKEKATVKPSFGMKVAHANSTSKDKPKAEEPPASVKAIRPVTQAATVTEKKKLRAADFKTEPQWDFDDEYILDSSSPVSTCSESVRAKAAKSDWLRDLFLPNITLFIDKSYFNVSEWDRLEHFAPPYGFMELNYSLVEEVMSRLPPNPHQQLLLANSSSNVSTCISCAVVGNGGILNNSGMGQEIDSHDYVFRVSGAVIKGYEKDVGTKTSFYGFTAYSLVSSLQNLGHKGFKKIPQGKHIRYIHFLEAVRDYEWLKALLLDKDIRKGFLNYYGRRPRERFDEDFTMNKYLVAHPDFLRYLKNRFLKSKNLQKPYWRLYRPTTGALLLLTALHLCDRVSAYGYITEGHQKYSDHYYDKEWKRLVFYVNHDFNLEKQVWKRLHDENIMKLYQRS
Method: as §1
α2,6-Sialyltransferases were prepared by the procedures as described by Tsuji et al, J Biol Chem., 1994, 269(2), 1402-9. The assay procedures for α2,6-Sialyltransferases were the same as those for α2,3-Sialyltransferases, except that 1 μl of Galα1,3GalNAc-Obzl (0.1 mM) was replaced by 1 μl of fetuin (1 μg/μl).

sialidase = assay: Sialidase assay; assay type: biochemical; set-up: Relative Activity (%): dose or concentration left out as unconfirmed
Method: The sialidase (10 mU/90 μl, sigma) in 500 mM sodium phosphate buffer (pH 4.5) was mixed with 10 μl inhibitor (5 mM) or water, 100 μl 4-methylumbelliferyl-[…]-acetylneuraminic acid (0.2 mM, sigma). The resulting solution was incubated at 37° C. for 30 min. The solution was added 1 ml quenching buffer (0.133 M glycine-NaOH, pH 10.7, 60 mM NaCl and 41.5 mM Na2CO3) to stop the reaction. The fluorescence intensity of the resulting solution was measured by fluorescence spectrophotometer at 360 nm excitation and at 440 nm emission.

[1] = system: cell surface α2,6-sialoglycoconjugates on HepG2; assay: Flow cytometry (FITC-SNA) of inhibitor-treated HepG2 cells; assay type: cell-based, human; details: for Cell surface α2,6-sialoglycoconjugates (%) on HepG2: three days, FITC-SNA stain, control 100
Method: (§2) Human breast cancer cell MCF7 and hepatoma cell HepG2 were incubated in 5% CO2 incubator at 37° C. with the MEM (Eagle) medium with Earle's Bss supplemented with 2 mM glutamine, 1.5 g/l sodium bicarbonate, 0.1 mM non-essential amino acids, 1.0 mM sodium pyruvate, 100 units/ml penicillin, 100 μg/ml streptomycin and 2.5 μg/ml amphotericin B and with 10% fetal bovine serum. The cells were transferred weekly to 0.025% trypsin in 0.53 mM EDTA in Ca^2+Mg^2+-free PBS.
(§3) The cells were incubated in the culture medium with 2.5% fetal bovine serum in the presence of a different concentration (5, 25, 50 and 100 μM, respectively) of the inhibitor in a 5% CO2 incubator at 37° C. for three days.
(§4) Fluorescein isothiocyanate labeled Maackia amurensis agglutinin (MAA) and Sambucus nigra agglutinin (SNA), which recognize the oligosaccharide species NeuAcα2,3-Gal-R and NeuAcα2,6-R, respectively, were purchased from Vector Labs Inc. (Burlingame, Calif.). Cells (control and inhibitor-treated). The cells scraped from dishes with a rubber policeman were washed with PBS and stained with fluorescein isothiocyanate labeled MAA and SNA, respectively, in binding buffer (10 mM HEPES, 0.15 M NaCl, pH 7.5) at 4° C. for 1 h. After centrifugation, cells were washed three times with PBS and fixed with 1% paraformaldehyde. The fluorescence intensity was measured with a FACScan flow cytometry (Becton Dickinson, Mountain View, Calif.).

[2] = system: human breast cancer MCF7 cells; assay: Growth inhibition of MCF7 cells; assay type: cell-based; details: FIG. 2
Method: as §2, with “PBS. The cells were incubated in the culture medium with 2.5% fetal bovine serum in the presence of a different concentration (5, 25, 50 and 100 μM, respectively) of the inhibitor in a 5% CO2 incubator at 37° C. for three days.” for “PBS.”

[3] = system: cell surface α2,3-sialoglycoconjugates on MCF7; assay: Flow cytometry (FITC-MAA) of inhibitor-treated MCF7 cells; assay type: cell-based, human; details: for Cell surface α2,3-sialoglycoconjugates (%) on MCF7: three days, FITC-MAA stain, control 100
Method: as §2, §3, §4

[4] = system: human hepatoma HepG2 cells; assay: Growth inhibition of HepG2 cells; assay type: cell-based; details: FIG. 3
Method: as §2, with “PBS. The cells were incubated in the culture medium with 2.5% fetal bovine serum in the presence of a different concentration (5, 25, 50 and 100 μM, respectively) of the inhibitor in a 5% CO2 incubator at 37° C. for three days.” for “PBS.”

α-mannosidase = assay: α-Mannosidase assay; assay type: biochemical; set-up: Relative Activity (%): dose or concentration left out as unconfirmed
Method: The α-mannosidase (10 mU/90 μl, Sigma) in 500 mM sodium phosphate buffer (pH 4.5) was mixed with 10 μl inhibitor (5 mM) or water, 100 μl 4-methylumbelliferyl-[…]-mannopyranoside (0.2 mM). The resulting solution was incubated at 37° C. for 30 min. The resulting products were detected through the same procedures as those for sialidase assay.

fucosyltransferase = assay: Fucosyltransferase assay; assay type: biochemical; details: FIG. 1
Method: The fucosyltransferase (1 mU/10 μl, Calbiochem) in 100 mM Tris-HCl buffer (pH 7.5) and 40 mM MnCl2 was mixed with 4 μl inhibitor or water, 4 μl N-acetylglucosamine (1 mM) and 2 μl GDP-[^14C]fucose (20 nCi). The resulting solution was incubated at 37° C. for one hour. The reaction products were detected through the same procedures as those for sialyltransferase assay.

β-galactosidase = assay: β-Galactosidase assay; assay type: biochemical; set-up: Relative Activity (%): dose or concentration left out as unconfirmed
Method: […] The resulting solution was incubated at 37° C. for 30 min. The resulting products were detected through the same procedures as those for sialidase assay.

CC1OC(OC2C(OC3C(OC4CCC5(C)C(CCC6(C)C5CC=C5C7CC(C)(C)CC(O)C7(C)CCC56C)C4(C)C)OC(C(=O)O)C(O)C3O)OC(CO)C(O)C2O)C(O)C(O)C1O (centres unmarked) [kaikasaponin III]
Percentage of inhibition (%) (α2,3-sialyltransferase): 95.5%
Percentage of inhibition (%) (α2,6-sialyltransferase): 83.2%

CC1(C)C[C@@H](O)[C@]2(C)CC[C@]3(C)C(=CC[C@@H]4[C@@]5(C)CC[C@H](O[C@@H]6O[C@H](C(=O)O)[C@@H](O)[C@H](O)[C@H]6O[C@@H]6O[C@H](CO)[C@H](O)[C@H](O)[C@H]6O)[C@](C)(CO)[C@@H]5CC[C@]43C)[C@@H]2C1 [soyasaponin III]
Percentage of inhibition (%) (α2,3-sialyltransferase): 61.5%
Percentage of inhibition (%) (α2,6-sialyltransferase): 23.1%

C[C@@H]1O[C@@H](O[C@H]2[C@H](O[C@H]3[C@H](O[C@H]4CC[C@@]5(C)[C@@H](CC[C@]6(C)[C@@H]5CC=C5[C@@H]7CC(C)(C)C[C@@H](O)[C@]7(C)CC[C@]56C)[C@@]4(C)CO)O[C@H](C(=O)O)[C@@H](O)[C@@H]3O)OC[C@H](O)[C@@H]2O)[C@H](O)[C@H](O)[C@H]1O [soyasaponin II]
Percentage of inhibition (%) (α2,3-sialyltransferase): 93.3%
Percentage of inhibition (%) (α2,6-sialyltransferase): 64.4%

C[C@@H]1O[C@@H](O[C@H]2[C@H](O[C@H]3[C@H](O[C@H]4CC[C@@]5(C)[C@@H](CC[C@]6(C)[C@@H]5CC=C5[C@@H]7CC(C)(C)C[C@@H](O)[C@]7(C)CC[C@]56C)[C@@]4(C)CO)O[C@H](C(=O)O)[C@@H](O)[C@@H]3O)O[C@H](CO)[C@H](O)[C@@H]2O)[C@H](O)[C@H](O)[C@H]1O [soyasaponin I]
inhibition of sialyltransferases (in words) (α2,3-sialyltransferase; FIG. 1, sialyltransferases, type not specified): specifically inhibited
Percentage of inhibition (%) (α2,3-sialyltransferase): 89.9%
inhibition of sialidase (in words) (sialidase; Table 3): did not inhibit
Relative Activity (%) (sialidase; soyasaponin I, control 100): 142.0%
Cell surface α2,6-sialoglycoconjugates (%) on HepG2 ([1]; 5 μM): 96.5%
Cell surface α2,6-sialoglycoconjugates (%) on HepG2 ([1]; 25 μM): 85.1%
Cell surface α2,6-sialoglycoconjugates (%) on HepG2 ([1]; 50 μM): 76.4%
decrease of cell surface α2,6-sialoglyconjugates of HepG2 cells ([1]; 100 μM): about 60%
Cell surface α2,6-sialoglycoconjugates (%) on HepG2 ([1]; 100 μM): 41.4%
growth of human breast cancer MCF7 cells (in words) [2]: inhibited the growth
Cell surface α2,3-sialoglycoconjugates (%) on MCF7 ([3]; 5 μM): 99.5%
Cell surface α2,3-sialoglycoconjugates (%) on MCF7 ([3]; 25 μM): 68.0%
Cell surface α2,3-sialoglycoconjugates (%) on MCF7 ([3]; 50 μM): 56.8%
decrease of the α2,3-sialoglyconjugates of MCF7 cells ([3]; 100 μM): about 80%
Cell surface α2,3-sialoglycoconjugates (%) on MCF7 ([3]; 100 μM): 19.8%
growth of human hepatoma HepG2 cells (in words) [4]: inhibited the growth
Percentage of inhibition (%) (α2,6-sialyltransferase): 76.9%
inhibition of mannosidase (in words) (α-mannosidase; Table 3): did not inhibit
Relative Activity (%) (α-mannosidase; soyasaponin I, control 100): 99.4%
inhibition of fucosyltransferase (in words) (fucosyltransferase): not for fucosyltransferase
inhibition of galactosidase (in words) (β-galactosidase; Table 3): did not inhibit
Relative Activity (%) (β-galactosidase; soyasaponin I, control 100): 112.0%

CC1(C)CC(O)C2(C)CCC3(C)C(=CCC4C5(C)CCC(OC6OC(C(=O)O)C(O)C(O)C6OC6OC(CO)C(O)C(O)C6OC6OC(CO)C(O)C(O)C6O)C(C)(CO)C5CCC43C)C2C1 (centres unmarked) [soyasaponin V]
Percentage of inhibition (%) (α2,3-sialyltransferase): 79.6%
Percentage of inhibition (%) (α2,6-sialyltransferase): 32.9%

soyasaponin I-Me
Percentage of inhibition (%) (α2,3-sialyltransferase): 63.8%
Percentage of inhibition (%) (α2,6-sialyltransferase): 32.2%
